Measurements from ChEMBL document CHEMBL3885881, “DrugMatrix”.

Organism: Rattus norvegicus
Assay type: toxicity, organism-based, Sprague-Dawley
Conditions: in vivo, 24 h, time 1 day; for ABSOLUTE EOSINOPHIL / ABSOLUTE LYMPHOCYTE / ABSOLUTE MONOCYTE / ABSOLUTE SEGMENTED NEUTROPHIL / BASOPHIL / EOSINOPHIL / ERYTHROCYTE COUNT / HEMATOCRIT / HEMOGLOBIN / LEUKOCYTE COUNT / LYMPHOCYTE / MEAN CORPUSCULAR HEMOGLOBIN / MEAN CORPUSCULAR HEMOGLOBIN CONCENTRATION / MEAN CORPUSCULAR VOLUME / MONOCYTE / NEUTROPHIL / NUCLEATED RED BLOOD CELLS / PLATELET COUNT / ABSOLUTE BASOPHIL: tissue Blood; for ALANINE AMINOTRANSFERASE / ALBUMIN / ALKALINE PHOSPHATASE / ASPARTATE AMINOTRANSFERASE / BLOOD UREA NITROGEN / CARBON DIOXIDE / CHLORIDE / CHOLESTEROL / CREATININE / GLUCOSE / LACTATE DEHYDROGENASE / LIPASE / PHOSPHORUS / POTASSIUM / SODIUM / TOTAL BILIRUBIN / TOTAL PROTEIN / URIC ACID / CREATINE PHOSPHOKINASE: tissue Plasma
[1] = sc, 0 mg/kg, vehicle control, route mini-PUMP - SUBCUTANEOUS, dose level Control, vehicle 100 % SALINE
[2] = sc, […], route mini-PUMP - SUBCUTANEOUS, dose 0.44 mg/Kg, dose level High, vehicle 100 % SALINE
[3] = po, 0 mg/kg, vehicle control, route oral GAVAGE, dose level Control, vehicle 100 % WATER
[4] = po, 120 mg/kg, route oral GAVAGE, dose level High, vehicle 100 % WATER

Description: DrugMatrix - Regimen: Single

CNC[C@H](O)c1cccc(O)c1 [PHENYLEPHRINE]
ABSOLUTE EOSINOPHIL [1]: 26.17 CELLS/uL
ABSOLUTE LYMPHOCYTE [1]: 10985.83 CELLS/uL
ABSOLUTE MONOCYTE [1]: 234.5 CELLS/uL
ABSOLUTE SEGMENTED NEUTROPHIL [1]: 1753.5 CELLS/uL
BASOPHIL [1]: 0%
EOSINOPHIL [1]: 0.17%
ERYTHROCYTE COUNT [1]: 5.64 x10E6/uL
HEMATOCRIT [1]: 34.52%
HEMOGLOBIN [1]: 12.68 G/DL
LEUKOCYTE COUNT [1]: 13 x10E3/uL
LYMPHOCYTE [1]: 84.5%
MEAN CORPUSCULAR HEMOGLOBIN [1]: 22.5 pg
MEAN CORPUSCULAR HEMOGLOBIN CONCENTRATION [1]: 36.78 G/DL
MEAN CORPUSCULAR VOLUME [1]: 61.18 fL
MONOCYTE [1]: 1.83%
NEUTROPHIL [1]: 13.5%
NUCLEATED RED BLOOD CELLS [1]: 0.17 /100WBC
PLATELET COUNT [1]: 679.17 x10E3/uL
ALANINE AMINOTRANSFERASE [1]: 42.67 u/L
ALBUMIN [1]: 3.77 G/DL
ALKALINE PHOSPHATASE [1]: 291.17 u/L
ASPARTATE AMINOTRANSFERASE [1]: 74.5 u/L
BLOOD UREA NITROGEN [1]: 15.33 mg/dL
CARBON DIOXIDE [1]: 30 mmol/L
CHLORIDE [1]: 100.83 MEQ/L
CHOLESTEROL [1]: 65.33 mg/dL
CREATININE [1]: 0.15 mg/dL
GLUCOSE [1]: 179.83 mg/dL
LACTATE DEHYDROGENASE [1]: 162.67 u/L
LIPASE [1]: 8.5 u/L
PHOSPHORUS [1]: 12.2 mg/dL
POTASSIUM [1]: 5.73 MEQ/L
SODIUM [1]: 144.7 MEQ/L
TOTAL BILIRUBIN [1]: 0.15 mg/dL
TOTAL PROTEIN [1]: 5.87 G/DL
URIC ACID [1]: 1.93 mg/dL
ABSOLUTE EOSINOPHIL [2]: 0 CELLS/uL
ABSOLUTE LYMPHOCYTE [2]: 12992 CELLS/uL
ABSOLUTE MONOCYTE [2]: 416.33 CELLS/uL
ABSOLUTE SEGMENTED NEUTROPHIL [2]: 3025 CELLS/uL
BASOPHIL [2]: 0%
EOSINOPHIL [2]: 0%
ERYTHROCYTE COUNT [2]: 6.07 x10E6/uL
HEMATOCRIT [2]: 36.37%
HEMOGLOBIN [2]: 13.2 G/DL
LEUKOCYTE COUNT [2]: 16.43 x10E3/uL
LYMPHOCYTE [2]: 79%
MEAN CORPUSCULAR HEMOGLOBIN [2]: 21.77 pg
MEAN CORPUSCULAR HEMOGLOBIN CONCENTRATION [2]: 36.27 G/DL
MEAN CORPUSCULAR VOLUME [2]: 59.93 fL
MONOCYTE [2]: 2.33%
NEUTROPHIL [2]: 18.67%
NUCLEATED RED BLOOD CELLS [2]: 0 /100WBC
PLATELET COUNT [2]: 1118.67 x10E3/uL
ALANINE AMINOTRANSFERASE [2]: 37.33 u/L
ALBUMIN [2]: 3.83 G/DL
ALKALINE PHOSPHATASE [2]: 259 u/L
ASPARTATE AMINOTRANSFERASE [2]: 64.33 u/L
BLOOD UREA NITROGEN [2]: 11.67 mg/dL
CARBON DIOXIDE [2]: 30 mmol/L
CHLORIDE [2]: 101.67 MEQ/L
CHOLESTEROL [2]: 75.67 mg/dL
CREATININE [2]: 0.16 mg/dL
GLUCOSE [2]: 171.33 mg/dL
LACTATE DEHYDROGENASE [2]: 133.67 u/L
LIPASE [2]: 9 u/L
PHOSPHORUS [2]: 14.13 mg/dL
POTASSIUM [2]: 6.67 MEQ/L
SODIUM [2]: 146.87 MEQ/L
TOTAL BILIRUBIN [2]: 0.1 mg/dL
TOTAL PROTEIN [2]: 5.97 G/DL
URIC ACID [2]: 3.6 mg/dL

COCCc1ccc(OCC(O)CNC(C)C)cc1 (centres undefined) [METOPROLOL]
ABSOLUTE BASOPHIL [3]: 63.3 cells/µL
ABSOLUTE EOSINOPHIL [3]: 66.7 cells/µL
ABSOLUTE LYMPHOCYTE [3]: 8010 cells/µL
ABSOLUTE MONOCYTE [3]: 240 cells/µL
BASOPHIL [3]: 0.6%
EOSINOPHIL [3]: 0.6%
ERYTHROCYTE COUNT [3]: 6.25 x10E6/uL
HEMATOCRIT [3]: 40.47%
HEMOGLOBIN [3]: 12.83 G/DL
LEUKOCYTE COUNT [3]: 10.19 x10E3/uL
LYMPHOCYTE [3]: 78.7%
MEAN CORPUSCULAR HEMOGLOBIN [3]: 20.53 pg
MEAN CORPUSCULAR HEMOGLOBIN CONCENTRATION [3]: 31.73 G/DL
MEAN CORPUSCULAR VOLUME [3]: 64.67 fL
MONOCYTE [3]: 2.5%
NEUTROPHIL [3]: 17.07%
PLATELET COUNT [3]: 1297 x10E3/uL
ALANINE AMINOTRANSFERASE [3]: 32.67 u/L
ALBUMIN [3]: 3.9 G/DL
ALKALINE PHOSPHATASE [3]: 374 u/L
ASPARTATE AMINOTRANSFERASE [3]: 64.33 u/L
BLOOD UREA NITROGEN [3]: 14 mg/dL
CARBON DIOXIDE [3]: 45.67 mmol/L
CHLORIDE [3]: 103 MEQ/L
CHOLESTEROL [3]: 82.67 mg/dL
CREATINE PHOSPHOKINASE [3]: 216.33 u/L
CREATININE [3]: 0.17 mg/dL
GLUCOSE [3]: 161.33 mg/dL
LACTATE DEHYDROGENASE [3]: 103.67 u/L
LIPASE [3]: 8.67 u/L
PHOSPHORUS [3]: 11 mg/dL
POTASSIUM [3]: 6.83 MEQ/L
SODIUM [3]: 144.67 MEQ/L
TOTAL BILIRUBIN [3]: 0.27 mg/dL
TOTAL PROTEIN [3]: 6.27 G/DL
URIC ACID [3]: 0.67 mg/dL
ABSOLUTE BASOPHIL [4]: 66.7 cells/µL
ABSOLUTE EOSINOPHIL [4]: 90 cells/µL
ABSOLUTE LYMPHOCYTE [4]: 8230 cells/µL
ABSOLUTE MONOCYTE [4]: 290 cells/µL
BASOPHIL [4]: 0.6%
EOSINOPHIL [4]: 0.9%
ERYTHROCYTE COUNT [4]: 6.76 x10E6/uL
HEMATOCRIT [4]: 44.17%
HEMOGLOBIN [4]: 14.1 G/DL
LEUKOCYTE COUNT [4]: 10.39 x10E3/uL
LYMPHOCYTE [4]: 79.03%
MEAN CORPUSCULAR HEMOGLOBIN [4]: 20.87 pg
MEAN CORPUSCULAR HEMOGLOBIN CONCENTRATION [4]: 31.9 G/DL
MEAN CORPUSCULAR VOLUME [4]: 65.33 fL
MONOCYTE [4]: 2.8%
NEUTROPHIL [4]: 16.1%
PLATELET COUNT [4]: 1170 x10E3/uL
ALANINE AMINOTRANSFERASE [4]: 33.33 u/L
ALBUMIN [4]: 3.83 G/DL
ALKALINE PHOSPHATASE [4]: 431 u/L
ASPARTATE AMINOTRANSFERASE [4]: 59 u/L
BLOOD UREA NITROGEN [4]: 13 mg/dL
CARBON DIOXIDE [4]: 38.67 mmol/L
CHLORIDE [4]: 103.33 MEQ/L
CHOLESTEROL [4]: 74 mg/dL
CREATINE PHOSPHOKINASE [4]: 229.33 u/L
CREATININE [4]: 0.3 mg/dL
GLUCOSE [4]: 178 mg/dL
LACTATE DEHYDROGENASE [4]: 77.67 u/L
LIPASE [4]: 8 u/L
PHOSPHORUS [4]: 12.3 mg/dL
POTASSIUM [4]: 6.47 MEQ/L
SODIUM [4]: 144 MEQ/L
TOTAL BILIRUBIN [4]: 0.23 mg/dL
TOTAL PROTEIN [4]: 6.2 G/DL
URIC ACID [4]: 0.9 mg/dL
